Laboratory results reported in ChEMBL document CHEMBL1201862, “PubChem BioAssay data set” (2004).
Activity calls are given as the source filed them.

How the values were obtained:
[1] = molecular target: FAD-linked sulfhydryl oxidase ALR (Homo sapiens, UniProt P55789); experiment: inhibitors of human ALR sulfhydryl oxidase, dose response, biochemical, H2O2 detection, luminescence, cherry-pick (AID 493248)
[2] = molecular target: T1, RNA-binding protein pos-1 (Caenorhabditis elegans, UniProt G5EF15); experiment: inhibitors of POS-1/mex-3 RNA binding, dose response, biochemical, fluorescence polarization (AID 1964);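 further: purified POS-1 fused to maltose binding protein made in E. coli; potency of compounds blocking POS-1 binding to fluorescent RNA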
T1 sequence (G5EF15 whole entry): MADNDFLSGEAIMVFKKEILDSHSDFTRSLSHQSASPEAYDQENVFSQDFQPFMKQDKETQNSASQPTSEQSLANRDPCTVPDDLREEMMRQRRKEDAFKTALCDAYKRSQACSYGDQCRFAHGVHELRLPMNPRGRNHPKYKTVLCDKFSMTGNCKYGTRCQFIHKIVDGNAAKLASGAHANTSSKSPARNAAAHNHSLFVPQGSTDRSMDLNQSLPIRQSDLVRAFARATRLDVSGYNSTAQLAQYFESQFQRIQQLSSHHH

[3] = molecular target: T2, Zinc finger protein mex-5 (Caenorhabditis elegans, UniProt Q9XUB2); experiment: MEX-5/TCR-2 RNA interaction inhibitors, dose response, biochemical, C. elegans, fluorescence polarization (AID 1960)
T2 sequence (Q9XUB2 whole entry): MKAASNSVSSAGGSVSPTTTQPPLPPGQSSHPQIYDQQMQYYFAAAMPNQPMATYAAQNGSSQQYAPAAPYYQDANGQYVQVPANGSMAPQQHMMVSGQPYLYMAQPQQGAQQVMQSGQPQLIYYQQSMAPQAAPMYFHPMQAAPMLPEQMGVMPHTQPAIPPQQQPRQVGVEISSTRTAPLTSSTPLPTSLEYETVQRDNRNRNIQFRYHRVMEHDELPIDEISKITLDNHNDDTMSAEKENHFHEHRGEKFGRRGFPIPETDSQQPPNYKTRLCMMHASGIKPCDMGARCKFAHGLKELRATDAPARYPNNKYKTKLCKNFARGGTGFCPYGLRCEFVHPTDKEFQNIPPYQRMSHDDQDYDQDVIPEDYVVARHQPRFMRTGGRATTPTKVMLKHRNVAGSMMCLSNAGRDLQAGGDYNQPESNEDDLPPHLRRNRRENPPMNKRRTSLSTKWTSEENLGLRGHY

[4] = growth suppression of PTEN-null colon cells, dose response, cell-based, HCT116 PTEN knockout (AID 1047); assay type: functional;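 further: HCT116 colon tumor cells with PTEN knocked out; cells exposed to compound for 60 hours before readout; potency for loss of cell viability measured by luminescence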
[5] = growth suppression of beta-catenin-knockout colon cells, dose response, cell-based, HCT116, human colon tumor (AID 1045); assay type: functional;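 further: HCT116 colon tumor cells with beta catenin knocked out; cells exposed to compound for 60 hours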
[6] = inhibitors of firefly luciferase expression or activity, dose response, H4 neuroglioma cells, luminescence (AID 1990); assay type: functional, cell-based
[7] = Luminescence Cell-Based Dose Response HTS to Identify Inhibitors of 5'UTR Stem-Loop Driven Prion Protein mRNA Translation in H4 Neuroglioblastoma Cells. [Related pubchem assays: 1827 (Project Summary), 1813 (Primary HTS)]; assay type: functional
[8] = inhibitors of SNCA 5'UTR-driven reporter translation, confirmation, H4 neuroglioma cells, luminescence (AID 1988); assay type: functional, cell-based
[9] = test system: Vero; experiment: cells; assay type: functional; conditions: Chlorocebus sabaeus
[10] = molecular target: Nonstructural protein 1 (Influenza A virus, UniProt Q194T2); assay type: functional, Influenza A virus (A/California/07/2009(H1N1))
Chain of Nonstructural protein 1 (Q194T2 whole entry): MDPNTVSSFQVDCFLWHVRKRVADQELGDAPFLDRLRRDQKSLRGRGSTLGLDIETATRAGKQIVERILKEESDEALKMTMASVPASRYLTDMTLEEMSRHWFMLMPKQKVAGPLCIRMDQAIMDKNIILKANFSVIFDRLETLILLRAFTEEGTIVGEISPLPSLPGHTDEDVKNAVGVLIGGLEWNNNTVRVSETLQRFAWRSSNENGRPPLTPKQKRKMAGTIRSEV

[11] = molecular target: T3, Polyadenylate-binding protein 1 (Homo sapiens, UniProt P11940); experiment: PABP1 MLLE–PAM2 interaction inhibitors, dose response, miRNA deadenylation inhibitor project, biochemical, fluorescence polarization, Cy5-PAM2 peptide, secondary (AID 602260); assay type: functional; conditions: read-out: IC50_Mean
T3 sequence (P11940 whole entry): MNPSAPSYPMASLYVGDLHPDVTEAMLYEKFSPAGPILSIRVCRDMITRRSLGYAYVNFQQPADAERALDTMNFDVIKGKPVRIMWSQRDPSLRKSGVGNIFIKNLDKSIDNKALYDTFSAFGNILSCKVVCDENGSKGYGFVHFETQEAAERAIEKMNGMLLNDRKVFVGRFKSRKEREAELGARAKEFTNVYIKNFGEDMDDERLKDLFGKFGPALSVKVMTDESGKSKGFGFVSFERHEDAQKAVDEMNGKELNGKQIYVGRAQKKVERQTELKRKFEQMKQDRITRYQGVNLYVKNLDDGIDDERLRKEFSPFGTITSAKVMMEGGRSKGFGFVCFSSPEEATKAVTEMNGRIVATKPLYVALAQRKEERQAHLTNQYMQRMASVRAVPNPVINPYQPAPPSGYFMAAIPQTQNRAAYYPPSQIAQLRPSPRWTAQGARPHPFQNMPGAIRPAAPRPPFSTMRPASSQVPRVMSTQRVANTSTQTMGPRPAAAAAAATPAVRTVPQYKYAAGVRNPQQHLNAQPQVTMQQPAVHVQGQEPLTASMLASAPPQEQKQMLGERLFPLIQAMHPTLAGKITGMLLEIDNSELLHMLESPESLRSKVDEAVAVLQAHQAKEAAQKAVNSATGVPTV

[12] = molecular target: T3, Polyadenylate-binding protein 1; experiment: PABP1 MLLE–PAM2 binding inhibitor potency, dose response, biochemical, fluorescence polarization, FITC-PAM2 peptide (AID 602259); assay type: functional; conditions: read-out: IC50_Mean
[13] = microbe, parasite or virus in culture; assay type: functional; conditions: Mycobacterium tuberculosis
[14] = HEp-2 cell cytotoxicity, dose response, cytotoxicity control for RSV inhibitor project, HTS (AID 2410); assay type: functional; conditions: human respiratory syncytial virus
[15] = molecular target: T4, Replicative DNA helicase DnaB (Mycobacterium tuberculosis, UniProt P9WMR3); experiment: DnaB intein splicing inhibitors, dose response, biochemical, cell-free fluorescence (AID 449749); assay type: functional
T4 sequence (P9WMR3 whole entry): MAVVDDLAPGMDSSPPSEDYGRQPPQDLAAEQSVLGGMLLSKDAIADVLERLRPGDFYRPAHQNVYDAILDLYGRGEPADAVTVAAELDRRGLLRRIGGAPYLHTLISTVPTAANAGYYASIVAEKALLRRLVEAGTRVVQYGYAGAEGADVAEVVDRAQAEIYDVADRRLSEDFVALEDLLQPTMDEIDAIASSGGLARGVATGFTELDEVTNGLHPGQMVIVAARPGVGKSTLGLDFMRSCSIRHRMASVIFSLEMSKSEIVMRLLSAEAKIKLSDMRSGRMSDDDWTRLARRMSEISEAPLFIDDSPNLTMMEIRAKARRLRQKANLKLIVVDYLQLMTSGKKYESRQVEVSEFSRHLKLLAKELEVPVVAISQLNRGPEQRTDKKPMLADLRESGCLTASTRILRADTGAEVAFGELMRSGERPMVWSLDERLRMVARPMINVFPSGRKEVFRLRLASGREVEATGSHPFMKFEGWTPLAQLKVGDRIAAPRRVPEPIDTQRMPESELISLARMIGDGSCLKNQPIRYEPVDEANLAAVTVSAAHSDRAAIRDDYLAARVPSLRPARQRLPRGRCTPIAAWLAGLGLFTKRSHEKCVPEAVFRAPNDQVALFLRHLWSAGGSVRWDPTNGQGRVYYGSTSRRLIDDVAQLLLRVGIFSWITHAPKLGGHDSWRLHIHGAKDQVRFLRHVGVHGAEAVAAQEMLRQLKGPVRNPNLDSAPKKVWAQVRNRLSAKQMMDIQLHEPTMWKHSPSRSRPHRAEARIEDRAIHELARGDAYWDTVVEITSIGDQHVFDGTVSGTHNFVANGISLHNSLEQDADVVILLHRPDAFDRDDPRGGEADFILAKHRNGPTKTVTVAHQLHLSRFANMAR

[16] = molecular target: T5, Protein RecA (Mycobacterium tuberculosis, UniProt P9WHJ3); experiment: Fluorescence Cell-Free Homogeneous Dose Retest to Identify Inhibitors of RecA-Intein Splicing Activity. [Related pubchem assays (depositor defined):AID2097, AID2223, AID489010, AID492950]; assay type: functional
T5 sequence (P9WHJ3 whole entry): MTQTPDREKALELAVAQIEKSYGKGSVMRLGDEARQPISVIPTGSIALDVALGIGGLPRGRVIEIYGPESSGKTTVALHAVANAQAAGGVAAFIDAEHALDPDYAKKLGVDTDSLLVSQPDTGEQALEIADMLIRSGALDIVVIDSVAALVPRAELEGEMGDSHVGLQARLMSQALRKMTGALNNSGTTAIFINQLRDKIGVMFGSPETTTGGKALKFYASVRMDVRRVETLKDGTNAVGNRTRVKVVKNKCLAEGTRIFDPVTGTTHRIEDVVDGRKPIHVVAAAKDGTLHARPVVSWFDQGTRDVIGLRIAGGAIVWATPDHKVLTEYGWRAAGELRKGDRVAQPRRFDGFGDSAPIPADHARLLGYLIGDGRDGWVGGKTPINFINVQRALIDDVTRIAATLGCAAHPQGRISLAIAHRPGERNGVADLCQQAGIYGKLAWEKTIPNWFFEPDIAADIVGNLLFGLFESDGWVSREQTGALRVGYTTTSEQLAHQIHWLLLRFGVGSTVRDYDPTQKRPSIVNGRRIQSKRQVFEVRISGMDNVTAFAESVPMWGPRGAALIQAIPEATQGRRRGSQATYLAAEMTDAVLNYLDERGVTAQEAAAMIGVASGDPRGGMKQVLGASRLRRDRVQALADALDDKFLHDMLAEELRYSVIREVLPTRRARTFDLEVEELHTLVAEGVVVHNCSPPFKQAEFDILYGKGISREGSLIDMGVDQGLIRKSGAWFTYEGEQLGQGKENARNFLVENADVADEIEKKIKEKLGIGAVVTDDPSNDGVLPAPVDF

Chain of FAD-linked sulfhydryl oxidase ALR (P55789 whole entry, the tested form may be a part): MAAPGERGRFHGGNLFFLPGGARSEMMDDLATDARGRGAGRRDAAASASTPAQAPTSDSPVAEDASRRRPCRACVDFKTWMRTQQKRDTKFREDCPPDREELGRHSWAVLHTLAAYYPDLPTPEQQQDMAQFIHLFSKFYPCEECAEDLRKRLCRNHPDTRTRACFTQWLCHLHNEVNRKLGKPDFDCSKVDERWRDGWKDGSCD

## CCNc1ccc(S(=O)(=O)N(C)C)cc1NCC(=O)Nc1ccccc1F
[1]
  AC50: 1.8 µM (active)

## COC(=O)CCC(=O)OC1(C)C(=O)C=C2C=C(C3CC3)OC=C2C1=O (stereo unspecified)
[2]
  EC50: 17.7 µM (active)
[3]
  EC50: 68.8 µM (inconclusive)

## CCOC(=O)C(C(=O)OCC)C(C(=O)OCC)N1CCOCC1 (stereo unspecified)
[4]
  EC50: 6.34 µM (active)
[5]
  EC50: 5.16 µM (active)

## COC(=O)C1=C(C)N(c2cc(Cl)cc(Cl)c2)C(=O)C1
[4]
  EC50: 35.6 µM (active)
[5]
  EC50: 42.9 µM (active)

## N#Cc1cc(C(=O)c2ccccc2OCC(=O)Nc2ccccc2Cl)cn(C2CCCCC2)c1=O
[6]
  EC50: 22 µM (active)
[7]
  EC50: > 120 µM (not active)
[8]
  EC50: > 120 µM (not active)

## Cc1cc(S(=O)(=O)N2CCN(c3ccccc3O)CC2)c(C)s1
[1]
  AC50: 0.156 µM (active)

## COc1ccc(CSc2nc(O)cc(=O)n2CC(C)C)cc1F
[1]
  AC50: 0.949 µM (active)

## COc1ccccc1N1CCN(CC(O)c2c(C)[nH]c3ccccc23)CC1 (stereo unspecified)
[9]
  CC50: > 25 µM (active)

## O=C(CN1C(=O)c2cccc3cccc(c23)C1=O)N1CCN(Cc2ccc3c(c2)OCO3)CC1
[10]
  IC50: > 100 µM (active)

## Cc1c(NC(=O)CCC2CCCCC2)cc(C(=O)N2CCOCC2)cc1[N+](=O)[O-]
[6]
  EC50: > 120 µM (not active)
[7]
  EC50: > 120 µM (not active)
[8]
  EC50: > 120 µM (not active)

## C#CCOCCOCCOCCNc1nc(N2CCN(C(=O)[C@H]([C@@H](C)CC)n3cc([C@@H](N)CO)nn3)CC2)nc(N2CCN(C(=O)[C@H]([C@@H](C)CC)n3cc([C@@H](N)CC(C)C)nn3)CC2)n1
[2]
  EC50: 24.4 µM (active)
[3]
  EC50: 18 µM (active)
[11]
  IC50: > 66 µM (inactive)
[12]
  IC50: 43.1 µM (inactive)

## Cc1ccc(-c2nc(-c3ccccn3)sc2CC(=O)O)cc1
[1]
  AC50: 0.226 µM (active)

## CCN(CC)c1ccc(Nc2nc(N3CCOCC3)c3ccccc3n2)cc1
[10]
  IC50: 11.5 µM (active)

## COC(=O)c1c(NC(=O)CCl)sc(C(=O)N2CCOCC2)c1C
[13]
  CC50: 16.4 µM (active)

## O=C(Nc1nnc(-c2cccnc2)o1)c1cccc([N+](=O)[O-])c1
[1]
  AC50: 1.61 µM (active)

## CCN(CC)S(=O)(=O)c1ccc(C2=NOC3(C2)N(C)c2ccccc2C3(C)C)cc1 (stereo unspecified)
[14]
  CC50: > 50 µM (active)
[6]
  EC50: > 120 µM (not active)
[7]
  EC50: 29 µM (active)
[8]
  EC50: 0.516 µM (active)

## C=CCn1c(SCc2cc(=O)n3ccsc3n2)nc2sc(C)c(C)c2c1=O
[6]
  EC50: 15.3 µM (active)
[7]
  EC50: > 120 µM (not active)
[8]
  EC50: > 120 µM (not active)

## O=c1[nH]c(CN2CCc3ccccc3C2)nc2ccccc12
[2]
  EC50: > 300 µM (not active)
[3]
  EC50: > 300 µM (not active)
[11]
  IC50: > 66 µM (inactive)
[12]
  IC50: > 66 µM (inactive)

## COc1ccccc1NC(=O)C1=C(C)N(c2ccccc2)C(S)=NC1c1cccc(C(F)(F)F)c1 (stereo unspecified)
[4]
  EC50: 14.3 µM (active)
[5]
  EC50: 13.7 µM (active)

## COc1cccc(N2C(=O)NC(=O)/C(=C/Nc3c(C)n(C)n(-c4ccccc4)c3=O)C2=O)c1
[2]
  EC50: > 300 µM (not active)
[3]
  EC50: > 300 µM (not active)

## CC(=O)Nc1ccc(N2C(=O)CSC2c2ccccc2[N+](=O)[O-])cc1 (stereo unspecified)
[1]
  AC50: 0.517 µM (active)

## CN(C)c1ccc(CN(Cc2ccco2)C(=O)c2ccco2)cc1
[1]
  AC50: 0.822 µM (active)

## O=[N+]([O-])c1ccc(C2CC(c3ccccc3)=Nc3ccccc3S2)cc1 (stereo unspecified)
[13]
  CC50: 37.4 µM (active)

## CC(C)OC(=O)CC(=O)CSc1nc2c(cc1C#N)CCC2
[4]
  EC50: 5.82 µM (active)
[5]
  EC50: 8.4 µM (active)

## COc1ccc(Br)cc1CNc1ccc2[nH]c(O)nc2c1
[1]
  AC50: 1.08 µM (active)

## CC(C)C[C@H]1CN([C@@H](CC(C)C)CN2CCCC2CN2C(=S)NC[C@@H]2Cc2ccc(O)cc2)C(=S)N1CC1CCCCCC1 (stereo partly specified)
[9]
  CC50: 20.9 µM (active)

## NC(=O)c1cccc(/N=C/c2cc(Cl)cc(Cl)c2O)c1
[2]
  EC50: > 300 µM (not active)
[3]
  EC50: > 300 µM (not active)

## O=C(NCc1ccccn1)C(=O)N/N=C/c1ccccc1O
[10]
  IC50: 14 µM (active)

## COc1ccc(C2C(C#N)=C(/N=C/N3CCOCC3)OC3=C2C(=O)CC(C)(C)C3)cc1OC (stereo unspecified)
[2]
  EC50: > 300 µM (not active)
[3]
  EC50: > 300 µM (not active)

## Clc1ccc(Sc2oc(/C=N/n3cnnc3)cc2Br)cc1
[4]
  EC50: 15.2 µM (active)
[5]
  EC50: 43.8 µM (active)
[15]
  AC50: 2 µM (active)
[16]
  EC50: 8.65 µM (active)
